In patent publication US20250302788A1, “COMPOSITION COMPRISING CREATINE FOR USE IN THE TREATMENT OF POST VIRAL FATIGUE SYNDROME” (Alzchem Trostberg GmbH, priority 2022, published 2025):
Where two headings read alike, the source gives them in different places.

Columns and labels:
[1] = test system: patients suffering under Post-COVID; experiment: MFI-20 multidimensional fatigue inventory test, Example 1; format: in vivo, human; conditions: 4 g/day
Method: (§1) The patient-reported outcomes for COVID-19-related signs and symptoms (e.g. headache, concentrating difficulties, anosmia, ageusia) were evaluated with VAS scale. Fatigue, comprising the conditions of the group general fatigue, physical fatigue, metal fatigue, reduced activity, and reduced motivation, was evaluated with a multidimensional fatigue inventory test (MFI-20 test, Smets E. M. et al., J. Psychosom. Res. 1995, 39 (3), 315).

[2] = test system: patients suffering under Post-COVID; experiment: VAS scale of COVID-19-related signs and symptoms, Example 1; format: in vivo, human; conditions: 4 g/day
Method: as §1

[3] = test system: patients suffering under Post-COVID; experiment: Incremental treadmill test until exhaustion, Example 1; format: in vivo, human; conditions: for Time to exhaustion: 4 g/day
Method: In addition the time to exhaustion of the patients was evaluated by an incremental test until exhaustion on a motorized treadmill. Speed and gradient of the treadmill are increased every third minute, starting at 2.7 km/h (1.7 miles per hour) at a 10% gradient and rising at stage 7 to 9.7 km/h (6 miles per hour) at 22% gradient (Will P. M. and Walter J. D., Am Heart. J., 1999 December, 138, 1033).

[4] = test system: patients suffering under Post-COVID; experiment: Reported side effects, Example 1; format: in vivo, human; conditions: 4 g creatine monohydrate/day, up to 6 months
Method: The number of participants who were randomly assigned, received intended treatment, and were analyzed for the primary outcome at this time was twelve in total, six in experimental group and six in control group.

[5] = both, human, in vivo
[6] = test system: PCFS patients; experiment: MFI-20 fatigue test, Example 3; format: in vivo, human
[7] = test system: PCFS patients; format: in vivo, human
[8] = test system: PCFS patients; experiment: Incremental treadmill test until exhaustion, Example 3; format: in vivo, human
Method: In addition the time to exhaustion of the patients was evaluated by an incremental test until exhaustion on a motorized treadmill.

[9] = human, in vivo
[10] = test system: PCFS patients; conditions: in vivo
[11] = normal healthy population; cited from earlier work
[12] = 8 weeks vs baseline, listed as EXP 2, monohydrate
[13] = 8 weeks vs baseline, monohydrate

CN(CC(=O)O)C(=N)N.O [Creatine, creatine monohydrate]
General fatigue (MFI-20 score) ([1]; 3 months): 11.3 | Mental fatigue (MFI-20 score) ([1]; 3 months): 11.2 | Physical fatigue (MFI-20 score) ([1]; 3 months): 12.7 | Reduced activity (MFI-20 score) ([1]; 3 months): 12.0 | Reduced motivation (MFI-20 score) ([1]; 3 months): 13.0 | General fatigue (MFI-20 score) ([1]; 6 months): 12.7 | Mental fatigue (MFI-20 score) ([1]; 6 months): 10.5 | Physical fatigue (MFI-20 score) ([1]; 6 months): 13.2 | Reduced activity (MFI-20 score) ([1]; 6 months): 12.5 | Reduced motivation (MFI-20 score) ([1]; 6 months): 12.5 | General fatigue (MFI-20 score) ([1]; Baseline): 12.0 | Mental fatigue (MFI-20 score) ([1]; Baseline): 12.3 | Physical fatigue (MFI-20 score) ([1]; Baseline): 13.5 | Reduced activity (MFI-20 score) ([1]; Baseline): 11.5 | Reduced motivation (MFI-20 score) ([1]; Baseline): 13.0 | Ageusia (VAS scale) ([2]; 3 months): 0.2 | Anosmia (VAS scale) ([2]; 3 months): 1.0 | Concentrating difficulties (VAS scale) ([2]; 3 months): 1.5 | Headache (VAS scale) ([2]; 3 months): 0.8 | Ageusia (VAS scale) ([2]; 6 months): 0.0 | Anosmia (VAS scale) ([2]; 6 months): 0.8 | Concentrating difficulties (VAS scale) ([2]; 6 months): 0.0 | Headache (VAS scale) ([2]; 6 months): 0.5 | Ageusia (VAS scale) ([2]; Baseline): 5.0 | Anosmia (VAS scale) ([2]; Baseline): 5.0 | Concentrating difficulties (VAS scale) ([2]; Baseline): 4.0 | Headache (VAS scale) ([2]; Baseline): 3.8 | Time to exhaustion ([3]; 3-months): 922 s | Time to exhaustion ([3]; 6-months): 959 s | Time to exhaustion ([3]; Baseline): 894 s | Stage achieved in the treadmill test ([3]; placebo group remains at stage 5): stage 6 | Increase of time to exhaustion ([3]; vs baseline, compared to 2.1% after placebo intake): 7.3% | Side effects [4]: no major side effects | Total creatine, Left frontal grey matter [5]: 6.6 ± 0.6 mM | Total creatine, Left frontal white matter [5]: 6.7 ± 0.7 mM | Total creatine, Left mesial grey matter [5]: 8.1 ± 1.3 mM | Total creatine, Left paracentral grey matter [5]: 6.8 ± 0.8 mM | Total creatine, Left parietal white matter [5]: 7.5 ± 1.6 mM | Total creatine, Left precentral white matter [5]: 6.4 ± 1.0 mM | Total creatine, Right frontal grey matter [5]: 6.6 ± 1.1 mM | Total creatine, Right frontal white matter [5]: 6.7 ± 1.0 mM | Total creatine, Right mesial grey matter [5]: 8.4 ± 1.4 mM | Total creatine, Right paracentral grey matter [5]: 7.2 ± 0.8 mM | Total creatine, Right parietal white matter [5]: 7.6 ± 1.9 mM | Total creatine, Right precentral white matter [5]: 6.8 ± 0.9 mM | Total creatine, Thalamus [5]: 5.1 ± 1.0 mM | Total creatine, Vastus medialis muscle [5]: 29.0 ± 5.6 mM | Cohen's effect size (d) for creatine increase, parietal mesial grey matter ([5]; 8 weeks): 0.65 | Total creatine, Left frontal grey matter ([5]; 8 weeks): 6.5 ± 0.5 mM | Total creatine, Left frontal white matter ([5]; 8 weeks): 6.8 ± 0.9 mM | Total creatine, Left mesial grey matter ([5]; 8 weeks): 8.6 ± 1.1 mM | Total creatine, Left paracentral grey matter ([5]; 8 weeks): 6.9 ± 0.9 mM | Total creatine, Left parietal white matter ([5]; 8 weeks): 7.8 ± 1.3 mM | Total creatine, Left precentral white matter ([5]; 8 weeks): 6.7 ± 0.8 mM | Total creatine, Right frontal grey matter ([5]; 8 weeks): 6.7 ± 1.0 mM | Total creatine, Right frontal white matter ([5]; 8 weeks): 7.0 ± 1.1 mM | Total creatine, Right mesial grey matter ([5]; 8 weeks): 9.2 ± 1.0 mM | Total creatine, Right paracentral grey matter ([5]; 8 weeks): 7.6 ± 1.6 mM | Total creatine, Right parietal white matter ([5]; 8 weeks): 7.7 ± 1.9 mM | Total creatine, Right precentral white matter ([5]; 8 weeks): 7.4 ± 1.1 mM | Total creatine, Thalamus ([5]; 8 weeks): 5.3 ± 0.9 mM | Total creatine, Vastus medialis muscle ([5]; 8 weeks): 30.4 ± 5.2 mM | General fatigue (MFI-20 score) ([6]; 8 weeks): 12.0 | Mental fatigue (MFI-20 score) ([6]; 8 weeks): 12.2 | Physical fatigue (MFI-20 score) ([6]; 8 weeks): 11.4 | Reduced activity (MFI-20 score) ([6]; 8 weeks): 12.0 | Reduced motivation (MFI-20 score) ([6]; 8 weeks): 10.3 | Cohen's effect (d), General Fatigue ([6]; 8 weeks vs baseline): 0.44 | Cohen's effect (d), Mental Fatigue (MF) ([6]; 8 weeks vs baseline): 1.32 | Cohen's effect (d), Physical Fatigue (PF) ([6]; 8 weeks vs baseline): 0.83 | Cohen's effect (d), Reduced Motivation (RM) ([6]; 8 weeks vs baseline): 1.07 | Cohen's effect (d), Reduced activity (RA) ([6]; 8 weeks vs baseline): 1.52 | General fatigue (MFI-20 score) ([6]; Baseline): 12.6 | Mental fatigue (MFI-20 score) ([6]; Baseline): 13.4 | Physical fatigue (MFI-20 score) ([6]; Baseline): 12.2 | Reduced activity (MFI-20 score) ([6]; Baseline): 13.6 | Reduced motivation (MFI-20 score) ([6]; Baseline): 11.6 | Ageusia (VAS scale) ([7]; 8 weeks): 0.2 | Anosmia (VAS scale) ([7]; 8 weeks): 0.0 | Concentrating difficulties (VAS scale) ([7]; 8 weeks): 2.2 | Headache (VAS scale) ([7]; 8 weeks): 0.8 | Malaise (VAS scale) ([7]; 8 weeks): 1.0 | Cohen's effect (d), Ageusia (AGE) ([7]; 8 weeks vs baseline): 0.34 | Cohen's effect (d), Breathing Difficulties (BRD) ([7]; 8 weeks vs baseline): 0.96 | Cohen's effect (d), Headache (HAD) ([7]; 8 weeks vs baseline): 0.93 | Cohen's effect (d), Difficulties concentrating (DCN) [7, 12]: 1.37 | Cohen's effect (d), Malaise (MAL) [7, 12]: 1.81 | Cohen's effect (d), Difficulties concentrating (DCN) [7, 13]: > 0.80 | Cohen's effect (d), Malaise (MAL) [7, 13]: > 0.80 | Ageusia (VAS scale) ([7]; Baseline): 0.0 | Anosmia (VAS scale) ([7]; Baseline): 0.0 | Concentrating difficulties (VAS scale) ([7]; Baseline): 4.2 | Headache (VAS scale) ([7]; Baseline): 3.2 | Malaise (VAS scale) ([7]; Baseline): 4.2 | Time to exhaustion ([8]; 8 weeks): 844 s | Time to exhaustion ([8]; Baseline): 824 s | Change of time to exhaustion ([8]; post-administration (8 weeks) vs baseline): 20 s | Total creatine, Vastus medialis muscle ([9]; 0 months): 28.2 ± 3.0 mM | Cohen's effect size (d), brain creatine level, left parietal white matter ([9]; 3 months): 0.92 | Cohen's effect size (d), brain creatine level, parietal white matter ([9]; 3 months): 1.99 | Cohen's effect size (d), brain creatine level, right frontal white matter ([9]; 3 months): 1.25 | Cohen's effect size (d), brain creatine level, right paracentral grey matter ([9]; 3 months): 0.88 | Cohen's effect size (d), brain creatine level, right parietal messial grey matter ([9]; 3 months): 1.17 | Cohen's effect size (d), brain creatine level, thalamus ([9]; 3 months): 0.82 | Total creatine, Vastus medialis muscle ([9]; 3 months): 30.0 ± 4.2 mM | Cohen's effect size (d), brain creatine level, left parietal messial grey matter ([9]; 6 months): 0.84 | Cohen's effect size (d), brain creatine level, left parietal white matter ([9]; 6 months): 1.17 | Cohen's effect size (d), brain creatine level, parietal white matter ([9]; 6 months): 1.74 | Cohen's effect size (d), brain creatine level, right frontal white matter ([9]; 6 months): 1.32 | Cohen's effect size (d), brain creatine level, right parietal messial grey matter ([9]; 6 months): 1.06 | Total creatine, Vastus medialis muscle ([9]; 6 months): 30.6 ± 3.4 mM | Side effects / tolerability [10]: well-tolerated | Increase of creatine in the brain after creatine supplementation [11]: ≤ 5%
